In ChEMBL document CHEMBL1144799, “Synthesis, antiviral activity, and conformational studies of a P3 aza-peptide analog of a potent macrocyclic tripeptide HCV protease inhibitor” (Bioorg Med Chem Lett, 2008) one finds IC50 and EC50 data, which are given here for five compounds.

As a reminder, the pIC50 is −log10 of the IC50, conventionally taken in molar units. Read a low pIC50 as a high IC50. The term pEC50 denotes the EC50 on a negative log10 scale, so that one unit is a factor of ten. A lower pEC50 goes with a high EC50.

Assay [1] in a line: Inhibition of HCV NS3-4A protease. Also on record: species or system Hepacivirus hominis.
For a further assay, the system named is Hepatitis C virus. Put plainly: Antiviral activity against HCV replicon. It counts as functional, organism-based, Hepacivirus hominis.

Molecules are shown by their SMILES. pEC50, pIC50: −log10 of the molar value.

On to `C=C[C@@H]1C[C@]1(NC(=O)[C@@H]1C[C@@H](Oc2cc(-c3ccccc3)nc3cc(OC)ccc23)CN1C(=O)N(CC(C)C)NC(=O)OC(C)(C)C)C(=O)O`, for which the pIC50 in assay [1] is 5.68. Also, in the assay on Hepatitis C virus, the pEC50 was 4.28.
Consider `C=C[C@@H]1C[C@]1(NC(=O)[C@@H]1C[C@@H](Oc2cc(-c3ccccc3)nc3cc(OC)ccc23)CN1C(=O)N(NC(=O)OC(C)(C)C)C1CCCCC1)C(=O)O`, for which the pIC50 in assay [1] is 5.46.
`COc1ccc2c(O[C@@H]3C[C@H]4C(=O)N[C@]5(C(=O)O)C[C@H]5/C=C\CCCCCN(NC(=O)OC(C)(C)C)C(=O)N4C3)cc(-c3ccccc3)nc2c1`: in assay [1], the negative logarithm of the IC50 (pIC50) was 5.42. In addition, the pEC50 with Hepatitis C virus is 4.51.
In assay [1], `COc1ccc2c(O[C@@H]3C[C@H]4C(=O)N[C@]5(C(=O)O)C[C@H]5/C=C\CCCCC[C@H](NC(=O)OC5CCCC5)C(=O)N4C3)cc(-c3csc(NC(C)C)n3)nc2c1` [CILUPREVIR] had a negative logarithm of the IC50 (pIC50) of 8.52. The same compound showed a pEC50 with Hepatitis C virus of 8.92.
The corresponding values for `COc1ccc2c(O[C@@H]3C[C@H]4C(=O)N[C@]5(C(=O)O)C[C@H]5/C=C\CCCCC[C@H](NC(=O)OC(C)(C)C)C(=O)N4C3)cc(-c3ccccc3)nc2c1` are 7.96 and 7.11.
